Several values for one entry are separate records, joined by “and”; a condition that tells them apart may be missing. Equal entries are not always repeated.
How the values were obtained:
[1] = molecular target: T1, hPAR2 (Homo sapiens, UniProt P55085); assay: Ca^2+ flux assay, inhibition of tryptase activation in 1321N1-hPAR2 cells; type: cell-based; settings: 1 µM Vorapaxar
T1 sequence (P55085 26-397): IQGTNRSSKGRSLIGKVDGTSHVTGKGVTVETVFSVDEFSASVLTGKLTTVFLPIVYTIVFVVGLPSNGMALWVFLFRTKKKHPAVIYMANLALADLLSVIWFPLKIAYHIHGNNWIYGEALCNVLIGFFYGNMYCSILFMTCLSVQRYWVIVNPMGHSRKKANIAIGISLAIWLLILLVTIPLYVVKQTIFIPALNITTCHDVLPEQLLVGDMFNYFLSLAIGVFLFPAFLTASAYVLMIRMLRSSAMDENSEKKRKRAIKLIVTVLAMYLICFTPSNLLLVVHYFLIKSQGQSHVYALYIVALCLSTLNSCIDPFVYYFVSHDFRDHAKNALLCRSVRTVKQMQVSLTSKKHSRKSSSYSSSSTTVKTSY
Procedure: For evaluation of Ca^2+ mobilisation, 1321N1-hPAR2 cells were seeded in 384-well CellBIND plates (Corning) at 4000 cells per well in DMEM containing 10% FBS and incubated for 18–24 hours at 37 °C, 5% CO2 and 95% humidity. Cells were loaded with Fluo-8 NW calcium dye (AAT Bioquest) for 30 min at 37 °C before compounds in Hank’s balanced salt solution (HBSS, ThermoFisher Scientific) with 20 mM HEPES (ThermoFisher Scientific), 0.1% bovine serum albumin (BSA, Sigma) and 0.5% DMSO were added and simultaneously evaluated for changes in intracellular [Ca^2+] using FLIPR TETRA (Molecular Devices) to detect agonism. For each concentration, the difference between the maximum peak Ca^2+ response and baseline response is reported. […] Inhibition of Ca^2+ release on rat PAR2 was measured in the same way using 10 000 KNRK cells per well seeded in poly-D-lysine coated 384-well plates (Greiner), 30 min preincubation with the compound before activation of PAR2 with EC80 of SLIGRL-NH2 (120 µM) and real-time detection of Ca^2+. […] Intracellular [Ca^2+] flux was measured using FLIPR TETRA (Molecular Devices) and the difference between the maximum peak Ca^2+ response and baseline response is reported.

[2] = test system: mast cells; assay: Immunohistochemistry, tryptase-positive (AA1+ve) intact mast cells in rat paw; type: in vivo; settings: for AA +ve cells (% max): 2f-induced rat paw oedema, individual animals (Figure 5c); for decrease of tryptase-positive mast cells by 2f-LIGRLO-NH2: pre-treatment, 30 min
Procedure: Tissues were then embedded with Optimal Cutting Temperature compound (OCT, Sakura Finetek, USA) and stored at −80 °C before making cryo-sections for histological analysis. Frozen sections (5 µm) were made using a cryostat-microtome (Leica Biosystems, Germany). […] Slides were then dehydrated and mounted in DPX mountant (Sigma-Aldrich, USA). For immunohistochemistry, slides were briefly rinsed with PBS to remove OCT. Except for tryptase staining, antigen retrieval was performed by incubating slides in citrate buffer (0.01 M, pH 6) at 95 °C for 20 min. They were then cooled down briefly and incubated with blocking medium (PBS, 0.1% Triton X-100, 10% horse serum) for 1 h at room temperature in a humidity chamber. Samples were incubated with primary antibody medium (PBS, 0.1% Triton X-100, 4% horse serum; 1:100 primary antibody including – histamine, neutrophil elastase or ED1 antibodies) overnight at 4 °C. The next day, samples were washed with PBS and incubated with the secondary antibody medium (PBS, 0.1% Triton X-100, 4% horse serum, detection antibody 1:200) for 2 h at room temperature. For tryptase staining, slides were incubated with primary antibody medium (as above with tryptase antibody at 1:100 dilution) for 4 h, then the secondary antibody medium for 2 h. Finally, slides were dried, counterstained with DAPI (Invitrogen, Australia), and sealed with clear nail polish. Primary antibodies for tryptase (AA1, ab2378, Abcam, Australia), histamine (H7403, Sigma-Aldrich, USA), neutrophil elastase (ab21595, Abcam, Australia) and ED1 (ab31630, Abcam, Australia) were purchased from commercial sources. Secondary detection antibody was purchased from Abcam, Australia.

[3] = test system: mast cells; assay: Immunohistochemistry, histamine release in rat paw; type: in vivo; settings: pre-treatment; 30 min
Procedure: Rat paw tissues were collected, fixed in 10% neutral-buffered formalin (Sigma-Aldrich) for 2 h at 4 °C, transferred into falcon tubes containing 25% sucrose in PBS and left overnight at 4 °C. Tissues were then embedded with Optimal Cutting Temperature compound (OCT, Sakura Finetek, USA) and stored at −80 °C before making cryo-sections for histological analysis. Frozen sections (5 µm) were made using a cryostat-microtome (Leica Biosystems, Germany). For mast cell staining, slides were briefly washed with distilled water before staining with 0.1% toluidine blue (Sigma-Aldrich, pH 2.5) for 3 min. Slides were then dehydrated and mounted in DPX mountant (Sigma-Aldrich, USA). For immunohistochemistry, slides were briefly rinsed with PBS to remove OCT. Except for tryptase staining, antigen retrieval was performed by incubating slides in citrate buffer (0.01 M, pH 6) at 95 °C for 20 min. They were then cooled down briefly and incubated with blocking medium (PBS, 0.1% Triton X-100, 10% horse serum) for 1 h at room temperature in a humidity chamber. Samples were incubated with primary antibody medium (PBS, 0.1% Triton X-100, 4% horse serum; 1:100 primary antibody including – histamine, neutrophil elastase or ED1 antibodies) overnight at 4 °C. […] Tryptase-, neutrophil elastase- and ED1-positive cells were quantified using FIJI/ImageJ 1.42q software, USA.

inhibition of tryptase-induced Ca^2+ response [1] | SMILES | AA +ve cells (% max) [2] | decrease of tryptase-positive mast cells by 2f-LIGRLO-NH2 [2] | histamine release [3]
only partial inhibition at low | C[C@@H](C1CCCCC1)n1c(-c2cc3c(cc2Br)OCO3)nc2cc(C(=O)Nc3ccncc3)ccc21 [AZ2623] |  |  | 
only partial inhibition at low | C[C@@H](C1CCCCC1)n1c(-c2cc3c(cc2Br)OCO3)nc2cc(C(=O)Nc3ccc(C#N)cc3)ccc21 [AZ3451] | 91.7692 % max and 45.8846 % max and 58.1835 % max and 66.6982 % max | partly blocked | blocked
 | CCCc1cc(F)ccc1C(O)c1ncc[nH]1 (centres unmarked) [AZ8838] | 70.0073 % max and 71.1692 % max and 108.061 % max and 60.4212 % max and 59.2593 % max | partly blocked | blocked
